From patent publication US20230015595A1, “USE OF VALPROIC ACID FOR REDUCING POST-OPERATIVE SCARRING FOLLOWING A GLAUCOMA SURGERY” (SANTEN PHARMACEUTICAL CO., LTD., priority 2019, published 2023)
Entries after “also recorded” stand apart in the source; their conditions may differ.

Legend:
[1] = test system: mouse model of conjunctival scarring; assay: Mouse model of conjunctival scarring, quantitative multiphoton imaging and histology of collagen; assay type: in vivo
Excerpt: The conjunctiva was dissected to reveal the sclera where an incision was made into the anterior chamber. The resulting fistula allowed aqueous humor to exit into and underneath the conjunctiva. The accumulated fluid underneath the sutured conjunctiva was observed as a conjunctival bleb. To determine whether VPA has the capacity to protect collagen architecture, quantitative multiphoton imaging as described in Xu S et al (J. Hepatol., 2014, 61(2):260-269) was used to measure collagen properties in the mouse model of conjunctival scarring treated with VPA. The onset of scarring, as indicated by peak production of collagen mRNA, was measured on day 7 post-surgery. The mature scar was measured on day 14 post-surgery when collagen mRNA production was subdued. To study the impact of VPA on the collagen architecture during the onset of scarring on day 7, mice were injected with 300 μg/ml VPA directly into the operated area immediately after surgery and on day 2. To determine the effect of VPA in the mature scar on day 14, mice were injected as above, with an additional injection on day 7. By this method, it could be readily observed in histologically-stained sections as well as multiphoton scans that collagen fibers in the VPA-treated eyes were thinner than those in the PBS-treated control eyes. Exemplary collagen fibers showing the thinning effect of VPA are indicated by the white arrowheads in FIG. 2.

[2] = test system: rabbit model of microshunt implant surgery; assay: Rabbit model of microshunt implant surgery, MMC high/low dose and low dose MMC with VPA; assay type: in vivo
Description: The rabbit model of microshunt implant surgery using the PRESERFLO® MicroShunt (Santen) was performed and treated under these conditions: • (a) 0.4 mg/ml MMC via sponge for 1 min; • (b) 0.1 mg/ml MMC via sponge for 1 min; and • (c) 0.1 mg/ml MMC via sponge for 1 min in combination with a total of 11 injections of 300 μg/ml VPA, immediately after surgery, and once daily for first 7 days, followed by injections on days 10, 14 and 21 post-surgery.
The rabbit eyes were then evaluated.

[3] = test system: rabbit model of microshunt implant surgery; assay: Rabbit model of microshunt implant surgery (PRESERFLO MicroShunt), VPA alone vs PBS; assay type: in vivo
Description: The rabbit model of microshunt implant surgery using the PRESERFLO® MicroShunt (Santen) was performed with a total of 11 injections of 300 μg/ml VPA, immediately after surgery, and once daily for first 7 days, followed by injections on days 10, 14 and 21 post-surgery. The rabbit eyes were evaluated by slit lamp photography (FIG. 7).
Confocal microscopy was used to correlate bleb appearance and function. It is known that significant positively correlating features include cyst size and vasculature density/tortuosity.

[4] = test system: human Tenons conjunctival fibroblasts; assay: Type I collagen (Col1a1) expression in human Tenons conjunctival fibroblasts; assay type: cell-based; conditions: human Tenons conjunctival fibroblasts from three donors
Description: Likewise, for application in human, the dosage of VPA to be used was determined as in the rabbit model for effectiveness in reducing type I collagen. The effect of VPA on type I collagen expression in human Tenons conjunctival fibroblasts derived from three independent donors was investigated, and the results are as shown in FIG. 6B.

[5] = test system: primary rabbit conjunctival fibroblasts; assay: Type I collagen (Col1a1) expression and cell growth in primary rabbit conjunctival fibroblasts; assay type: cell-based
Description: For application in the rabbit model of microshunt implant surgery (PRESERFLO® MicroShunt, Santen), the dosage of VPA to be used was determined using primary rabbit conjunctival fibroblasts for (1) effectiveness in reducing type I collagen, and (2) non-toxicity on cell growth, as shown in FIG. 6.

[6] = 300 μg/ml VPA, 28 days post-surgery, vs PBS
[7] = 300 μg/ml VPA, day 28 rabbit tissues
[8] = 300 μg/ml VPA, day 28 rabbit tissues, vs PBS controls

With `CCCC(CCC)C(=O)O` [VPA, valproic acid] the “collagen fibers in histologically-stained sections and multiphoton scans” value ([1]; 300 μg/ml VPA injected into operated area, vs PBS-treated control eyes) was “thinner”, the “number of collagen fibers per mm^2” value ([1]; 300 μg/ml VPA, both time points (days 7 and 14), vs PBS) was “significantly reduced” and the “Collagen Reticulation Index (CRI)” value ([1]; 300 μg/ml VPA, day 7, vs PBS treatment) was “significant reduction”. The “Collagen Reticulation Index (CRI)” value ([1]; 300 μg/ml VPA, day 14 mature scar) was “lack of effect”, the “collagen area ratio (CAR)” value ([1]; 300 μg/ml VPA, days 7 and 14 post-surgery, vs PBS) was “significantly reduced” and the “collagen thickness (quantitative multiphoton analyses)” value ([1]; 300 μg/ml VPA, operated conjunctival sections, vs PBS) was “reduced”. For the same compound, the “collagen reticulation (measured as CRI and CARD)” value ([1]; 300 μg/ml VPA, post-operative conjunctiva) was “not induced”, the “collagen fiber density (CFD)” value ([1]; 300 μg/ml VPA, vs PBS controls) was “lack of significant difference” and the “collagen fibers around implant tip (picrosirius red, polarised light)” value ([2]; VPA 300 μg/mL with 0.1 mg/ml MMC (condition c)) was “reduced the presence of the thick fibers encapsulating the implant”. The “bleb collagen fiber packing (confocal microscopy)” value ([3]; 300 μg/ml VPA, 28 days post-surgery, PBS tightly-packed) was “loosely packed collagen fibers”, the “bleb vasculature (confocal microscopy)” value ([3]; 300 μg/ml VPA, 28 days post-surgery, PBS tortuous) was “straight” and the “bleb collagen characteristics (histology)” value ([3]; 300 μg/ml VPA, 28 days post-surgery, compared to normal tissue) was “thinner and similarly organized array of collagen fibers”. The “COL1A1 and fibronectin fibers (immunofluorescent staining)” value [3, 6] was “thinner and more diffusely distributed fibers”, the “bleb cysts (confocal microscopy)” value [3, 6] was “large cysts” and the Smad6 expression [3, 7] was “significantly induced”. For the same compound, the Vegfa expression [3, 7] was “significantly elevated”, the collagen transcript expression [3, 8] was “significantly reduced” and the fibronectin transcript expression [3, 8] was “significantly reduced”. For the same compound, the “time a filtering bleb was maintained (slit lamp)” value ([3]; 11 injections of 300 μg/ml VPA, PBS bleb failed by day 14) was “at least 28 days”, the “lowest concentration effective in significantly reducing Col1a1 expression without disrupting cell proliferation” value [4] was 300 µg/mL and the “lowest concentration effective in significantly reducing Col1a1 expression without disrupting cell proliferation” value [5] was 300 µg/mL.
`CO[C@@]12[C@H](COC(N)=O)C3=C(C(=O)C(C)=C(N)C3=O)N1C[C@@H]1N[C@@H]12` [MMC, mitomycin C] was tested, and the “mRNA expression of Col1a1” value ([2]; 0.1 mg/ml MMC, day 28 rabbit tissues, vs 0.4 mg/ml MMC and 0.1 mg/ml MMC+VPA, n=5) was “significantly higher”, the “bleb cysts (confocal microscopy)” value ([2]; rabbit, in vivo) was “large cysts; also recorded: smaller cysts” and the “bleb morphology (slit lamp)” value ([2]; rabbit, in vivo) was “starkly avascular and cystic bleb; also recorded: less avascular and mildly cystic bleb”. The “collagen fibers around implant tip (picrosirius red, polarised light)” value ([2]; rabbit, in vivo) was “thick collagen fibers encapsulating the implant”.
